# Measured values as given in PMC11859928, “Design, Synthesis, and Antiproliferative Activity of Novel Indole/1,2,4-Triazole Hybrids as Tubulin Polymerization Inhibitors” (Pharmaceuticals, 2025).
# Read-outs that look alike come from different tables or passages of the source.
# How the values were obtained:
# Renal cancer subpanel = test: NCI five-dose assay, subpanel mean; assay type: cell-based, human
# HCC-2998 = test: NCI five-dose assay; assay type: cell-based, human; settings: HCC-2998, Colon cancer
# U251 = test: NCI five-dose assay; assay type: cell-based, human; settings: U251, CNS cancer
# NCI-H23 = test: NCI five-dose assay; assay type: cell-based, human; settings: NCI-H23, Non-small cell lung cancer
# BT-549 = test: NCI five-dose assay; assay type: cell-based, human; settings: BT-549, Breast cancer
# OVCAR-3 = test: NCI five-dose assay; assay type: cell-based, human; settings: OVCAR-3, Ovarian cancer
# Ovarian cancer subpanel = test: NCI five-dose assay, subpanel mean; assay type: cell-based, human
# HOP-92 = test: NCI five-dose assay; assay type: cell-based, human; settings: HOP-92, Non-small cell lung cancer
# KM12 = test: NCI five-dose assay; assay type: cell-based, human; settings: KM12, Colon cancer
# SR = test: NCI five-dose assay; assay type: cell-based, human; settings: Leukemia
# OVCAR-8 = test: NCI five-dose assay; assay type: cell-based, human; settings: OVCAR-8, Ovarian cancer
# CAKI-1 = test: NCI five-dose assay; assay type: cell-based, human; settings: CAKI-1, Renal cancer
# SF-539 = test: NCI five-dose assay; assay type: cell-based, human; settings: SF-539, CNS cancer
# NCI-H322M = test: NCI five-dose assay; assay type: cell-based, human; settings: Non-small cell lung cancer
# UACC-257 = test: NCI five-dose assay; assay type: cell-based, human; settings: UACC-257, Melanoma
# [1] = tested on: Non-small cell lung cancer subpanel; test: NCI five-dose assay, subpanel mean; assay type: cell-based, human
# MDA/MB-231-ATCC = test: NCI five-dose assay; assay type: cell-based, human; settings: Breast cancer
# ACHN = test: NCI five-dose assay; assay type: cell-based, human; settings: Renal cancer
# HCT-15 = test: NCI five-dose assay; assay type: cell-based, human; settings: HCT-15, Colon cancer
# Colon cancer subpanel = test: NCI five-dose assay, subpanel mean; assay type: cell-based, human
# SF-295 = test: NCI five-dose assay; assay type: cell-based, human; settings: SF-295, CNS cancer
# tubulin = target: T1, tubulin (Sus scrofa, UniProt P02550+P02554); test: Tubulin polymerization inhibitory assay; assay type: biochemical
# T1 construct: purchased Cytoskeleton Inc., Denver, CO, USA
# Description: The substances’ effects on tubulin polymerization were examined using the Tubulin Polymerization Assay Kit (Cytoskeleton Inc., Denver, CO, USA) according to the supplier’s instructions, with details described in Appendix A..
# The activity of compounds on tubulin polymerization was investigated using the Tubulin Polymerization Assay Kit (Cytoskeleton Inc., Denver, CO, USA), which works via fluorescent reporter enhancement. […] Docetaxel and vincristine (Apoteket AB, Stockholm, Sweden) served as positive stabilizing and destabilizing controls. Both were used at a 3 µM concentration in PBS.
# LOX IMVI = test: NCI five-dose assay; assay type: cell-based, human; settings: Melanoma
# Melanoma subpanel = test: NCI five-dose assay, subpanel mean; assay type: cell-based, human
# MDA-MB-468 = test: NCI five-dose assay; assay type: cell-based, human; settings: Homo sapiens, MDA-MB-468, Breast cancer
# [2] = Homo sapiens, 48 h, read-out: LC50 (the source's name)
# [3] = Homo sapiens, read-out: GI50 Conc. per Cell Lines
# T1 sequence (P02554 whole entry): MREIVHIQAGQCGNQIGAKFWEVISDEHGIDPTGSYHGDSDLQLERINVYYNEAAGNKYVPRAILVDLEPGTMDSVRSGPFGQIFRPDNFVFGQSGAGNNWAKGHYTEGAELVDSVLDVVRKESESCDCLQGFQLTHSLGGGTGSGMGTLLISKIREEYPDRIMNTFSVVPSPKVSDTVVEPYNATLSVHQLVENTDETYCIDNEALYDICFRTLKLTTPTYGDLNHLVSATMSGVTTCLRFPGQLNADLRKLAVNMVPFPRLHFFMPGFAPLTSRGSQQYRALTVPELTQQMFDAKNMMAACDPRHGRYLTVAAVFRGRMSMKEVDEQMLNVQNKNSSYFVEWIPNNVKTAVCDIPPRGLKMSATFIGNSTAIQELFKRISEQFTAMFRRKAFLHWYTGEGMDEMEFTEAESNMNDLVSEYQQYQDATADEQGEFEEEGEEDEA
# T1 sequence (P02550 whole entry): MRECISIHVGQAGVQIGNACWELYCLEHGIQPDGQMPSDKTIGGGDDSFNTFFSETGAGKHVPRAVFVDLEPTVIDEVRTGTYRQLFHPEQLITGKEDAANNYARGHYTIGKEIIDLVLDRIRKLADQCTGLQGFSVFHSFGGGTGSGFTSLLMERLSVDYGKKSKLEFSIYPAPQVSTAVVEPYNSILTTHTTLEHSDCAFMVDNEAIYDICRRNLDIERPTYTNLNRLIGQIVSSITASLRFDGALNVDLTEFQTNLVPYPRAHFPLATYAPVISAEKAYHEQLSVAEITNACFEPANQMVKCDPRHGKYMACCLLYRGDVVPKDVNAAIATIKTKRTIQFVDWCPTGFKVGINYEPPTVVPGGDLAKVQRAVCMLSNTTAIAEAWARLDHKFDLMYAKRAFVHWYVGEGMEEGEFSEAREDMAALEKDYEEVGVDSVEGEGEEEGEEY
smiles,measurement,setting,value
"Cc1ccc(C(=O)CSc2nnc(-c3c[nH]c4ccccc34)n2-c2ccccc2)cc1 [Compound 6h, 2-((5-(1H-Indol-3-yl)-4-phenyl-4H-1,2,4-triazol-3-yl)thio)-1-(p-tolyl)ethenone]",GI50,"Renal cancer subpanel; Homo sapiens, average sensitivity of all cell lines of the Renal cancer subpanel, read-out: GI50 Subpanel MID b",17 µM
same,GI50 Selectivity Ratio (MID a/MID b),Renal cancer subpanel; Renal cancer subpanel,1.13
same,TGI Conc. per Cell Lines,HCC-2998,51.70 µM
same,CC50,HCC-2998; [2],> 100 µM
same,GI50,HCC-2998; [3],20 µM
same,CC50,"U251; Homo sapiens, U-251, 48 h, read-out: LC50 (the source's name)",> 100 µM
same,GI50,"U251; Homo sapiens, U-251, read-out: GI50 Conc. per Cell Lines",23.6 µM
same,TGI Conc. per Cell Lines,U251,65.60 µM
same,CC50,NCI-H23; [2],54.9 µM
same,GI50,NCI-H23; [3],13.7 µM
same,TGI Conc. per Cell Lines,NCI-H23,27.50 µM
same,TGI Conc. per Cell Lines,BT-549,46.70 µM
same,CC50,BT-549; [2],87.2 µM
same,GI50,BT-549; [3],25.1 µM
same,LC50,"OVCAR-3; Homo sapiens, 48 h",> 100 µM
same,GI50,OVCAR-3; [3],18 µM
same,TGI Conc. per Cell Lines,OVCAR-3,43.20 µM
same,GI50,"Ovarian cancer subpanel; Homo sapiens, average sensitivity of all cell lines of the Ovarian cancer subpanel, read-out: GI50 Subpanel MID b",17.4 µM
same,GI50 Selectivity Ratio (MID a/MID b),Ovarian cancer subpanel; Ovarian cancer subpanel,1.10
same,TGI Conc. per Cell Lines,HOP-92,34.70 µM
same,CC50,HOP-92; [2],82.1 µM
same,GI50,HOP-92; [3],14.7 µM
same,CC50,KM12; [2],> 100 µM
same,GI50,KM12; [3],36.1 µM
same,TGI Conc. per Cell Lines,KM12,>100 µM
same,CC50,SR; [2],> 100 µM
same,GI50,SR; [3],42 µM
same,TGI Conc. per Cell Lines,SR,˃100 µM
same,CC50,OVCAR-8; [2],> 100 µM
same,GI50,OVCAR-8; [3],24.5 µM
same,TGI Conc. per Cell Lines,OVCAR-8,˃100 µM
same,TGI Conc. per Cell Lines,CAKI-1,29.80 µM
same,LC50,"CAKI-1; Homo sapiens, 48 h",59.4 µM
same,GI50,CAKI-1; [3],14.9 µM
same,CC50,SF-539; [2],54.2 µM
same,GI50,SF-539; [3],15 µM
same,TGI Conc. per Cell Lines,SF-539,28.50 µM
same,CC50,NCI-H322M; [2],> 100 µM
same,GI50,NCI-H322M; [3],16.3 µM
same,TGI Conc. per Cell Lines,NCI-H322M,55.50 µM
same,CC50,UACC-257; [2],> 100 µM
same,GI50,UACC-257; [3],28.9 µM
same,TGI Conc. per Cell Lines,UACC-257,>100 µM
same,GI50,"[1]; Homo sapiens, average sensitivity of all cell lines of the Non-small cell lung cancer subpanel, read-out: GI50 Subpanel MID b",14.9 µM
same,GI50 Selectivity Ratio (MID a/MID b),[1]; Non-small cell lung cancer subpanel,1.29
same,TGI Conc. per Cell Lines,MDA/MB-231-ATCC,32.60 µM
same,LC50,"MDA/MB-231-ATCC; Homo sapiens, 48 h",69 µM
same,GI50,MDA/MB-231-ATCC; [3],15.4 µM
same,LC50,"ACHN; Homo sapiens, 48 h",62.3 µM
same,GI50,ACHN; [3],13.7 µM
same,TGI Conc. per Cell Lines,ACHN,29.20 µM
same,TGI Conc. per Cell Lines,HCT-15,>100 µM
same,CC50,HCT-15; [2],> 100 µM
same,GI50,HCT-15; [3],22.6 µM
same,GI50 Selectivity Ratio (MID a/MID b),Colon cancer subpanel; Colon cancer subpanel,0.76
same,GI50,"Colon cancer subpanel; Homo sapiens, average sensitivity of all cell lines of the Colon cancer subpanel, read-out: GI50 Subpanel MID b",25.4 µM
same,CC50,SF-295; [2],53.3 µM
same,GI50,SF-295; [3],12.6 µM
same,TGI Conc. per Cell Lines,SF-295,25.90 µM
same,"tubulin inhibitory activity, times lower than compound 7j",tubulin,1.5 times
same,%inhibition,tubulin; conc 0.01 (unit not given; IC50 from this curve in µg/ml),5.97%
same,%inhibition,tubulin; conc 0.1 (unit not given; IC50 from this curve in µg/ml),16.8%
same,%inhibition,tubulin; conc 1 (unit not given; IC50 from this curve in µg/ml),30%
same,%inhibition,tubulin; conc 10 (unit not given; IC50 from this curve in µg/ml),58%
same,%inhibition,tubulin; conc 100 (unit not given; IC50 from this curve in µg/ml),81.2%
same,IC50,tubulin; read-out: Tub. IC50±SD (converted),9.51 µM
same,IC50,"tubulin; read-out: Tubulin Inhibitory Effect, IC50",9.5 ± 0.3 µM
same,GI50,LOX IMVI; [3],14.3 µM
same,TGI Conc. per Cell Lines,LOX IMVI,27.30 µM
same,GI50,"Melanoma subpanel; Homo sapiens, average sensitivity of all cell lines of the Melanoma subpanel, read-out: GI50 Subpanel MID b",21.8 µM
same,GI50 Selectivity Ratio (MID a/MID b),Melanoma subpanel; Melanoma subpanel,0.88
same,LC50,MDA-MB-468; 48 h,81.3 µM
same,GI50,MDA-MB-468; read-out: GI50 Conc. per Cell Lines,12.8 µM
